# Assay results from paper PMC4841940 (Molecular cell, 2016).
# Entries after “also recorded” stand apart in the source; their conditions may differ.
# Columns and labels:
# [1] = tested on: AF9 recruitment to genes in RAW264.7 cells; assay: FLAG-AF9 ChIP-seq in RAW264.7 cells; assay type: cell-based, mouse; conditions: 10mM crotonate pre-treatment then LPS
# [2] = tested on: FLAG-AF9 (WT) recruitment in RAW264.7 cells; assay: FLAG-ChIP-qPCR, FLAG-AF9; assay type: cell-based, mouse; conditions: increasing concentrations of crotonate, then LPS; Rsad2, Il6, Ifit1, Cmpk2, Gbp2
# [3] = tested on: FLAG-AF9 (F59A) recruitment in RAW264.7 cells; assay: FLAG-ChIP-qPCR, FLAG-AF9; assay type: cell-based, mouse; conditions: increasing concentrations of crotonate, then LPS; Rsad2, Il6, Ifit1, Cmpk2, Gbp2
# [4] = tested on: RAW264.7 cells (parental); assay: qRT-PCR of crotonate-responsive genes, parental cells; assay type: cell-based, mouse; conditions: crotonate pre-treatment before LPS
# [5] = tested on: RAW264.7 cells, AF9 KO; assay: qRT-PCR of crotonate-responsive genes, AF9 knockout; assay type: cell-based, mouse; conditions: crotonate pre-treatment before LPS
# [6] = tested on: RAW264.7 cells, AF9KO + WT; assay: qRT-PCR, AF9 KO with wild type AF9 addback; assay type: cell-based, mouse; conditions: crotonate pre-treatment before LPS
# [7] = tested on: RAW264.7 cells, AF9KO + F59A; assay: qRT-PCR, AF9 KO with F59A addback; assay type: cell-based, mouse; conditions: crotonate pre-treatment before LPS
# [8] = tested on: histone crotonylation (H3K18cr) / crotonyl-CoA; conditions: ref Sabari et al., 2015, cited from earlier work
# [9] = target: second bromodomain of BRD3 (UniProt Q15059); assay: ITC
# [10] = target: AF9 YEATS domain, wild type (UniProt P42568); assay: ITC
# Chain of UniProt P42568 (P42568 1-138): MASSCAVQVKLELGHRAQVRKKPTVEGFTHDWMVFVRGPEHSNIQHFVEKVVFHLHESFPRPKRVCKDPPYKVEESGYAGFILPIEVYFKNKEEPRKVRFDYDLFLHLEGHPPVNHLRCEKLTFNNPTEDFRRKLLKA
# Chain of UniProt Q15059 (Q15059 307-416): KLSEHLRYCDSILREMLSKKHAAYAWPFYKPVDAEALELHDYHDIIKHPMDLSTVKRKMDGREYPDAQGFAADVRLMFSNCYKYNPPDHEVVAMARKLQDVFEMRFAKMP
molecule,measurement,setting,value
C/C=C/C(=O)O [crotonate],FLAG-AF9 ChIP-seq signal,[1]; metagene analysis,FLAG-AF9 signal was higher with crotonate treatment only for crotonate responsive genes
same,"mean fold-change in FLAG-AF9 RPKM, crotonate unresponsive genes","[1]; ± 1kb TSS, 233 genes",0.92 fold
same,AF9 (WT) ChIP-qPCR signal,[2],AF9 signal increases with increasing concentrations of crotonate
same,"AF9 (F59A) ChIP-qPCR signal, crotonate",[3],the F59A mutant is unresponsive
same,expression of Ccl3 (non-responsive gene),[4],unaffected by crotonate pre-treatment
same,crotonate response in AF9 KO cells,[5],"significantly reduced response; also recorded: significantly reduced the crotonate response in our model system, but did not abolish it completely"
same,"rescue of crotonate response, wild type AF9 addback",[6],addback of wild type AF9 but not mutant AF9 (F59A) rescued this reduction
same,"rescue of crotonate response, AF9 (F59A) addback",[7],not mutant AF9 (F59A) rescued this reduction
same,effect on crotonyl-CoA and acetyl-CoA,[8]; cellular concentrations,"selectively increases cellular concentrations of crotonyl-CoA, the high-energy donor of crotonyl, while leaving acetyl-CoA, the high-energy donor of acetyl, unaffected"
same,effect on Kcr vs Kac,[8],"specifically enhances Kcr, and does not significantly affect Kac"
H3K18bu peptide (acylation series of Figure 4C),fold reduced affinity against H3K18ac,[9],38 fold
histone H3_(1–15)K9su peptide (from UniProt P68431 2-16),Kd,[10],500 µM
H3K18pr peptide (acylation series of Figure 4C),fold reduced affinity against H3K18ac,[9],4 fold
histone H3_(1–15)K9ac peptide (from UniProt P68431 2-16),Kd,[10],5 µM
